Data as given in PubChem BioAssay (NCI).
“And” between values parts separate entries of the source, which are not always exact repeats. Equal entries are not always repeated.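 Protocol summary: plate cells (96-well), add compound at 5 concentrations, incubate 48 h, interpolate endpoints linearly. At the GI50, growth is halved. At the TGI there is no net growth.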

Assays:
Experiment in all cases: growth of human tumour cells (NCI), 48 h
A498 renal = system: A498 renal
KM12 colon = system: KM12 colon
K-562 leukemia = system: K-562 leukemia
A549 NSCLC = system: A549 NSCLC
NCI-H460 lung = system: NCI-H460 lung
SK-MEL-2 melanoma = system: SK-MEL-2 melanoma
UACC-62 melanoma = system: UACC-62 melanoma
UACC-257 melanoma = system: UACC-257 melanoma
HOP-62 NSCLC = system: HOP-62 NSCLC
CAKI-1 renal = system: CAKI-1 renal

Row | Compound | GI50 (A498 renal) | TGI (A498 renal) | GI50 (KM12 colon) | TGI (KM12 colon) | GI50 (K-562 leukemia) | TGI (K-562 leukemia) | GI50 (A549 NSCLC) | TGI (A549 NSCLC) | GI50 (NCI-H460 lung) | TGI (NCI-H460 lung) | GI50 (SK-MEL-2 melanoma) | TGI (SK-MEL-2 melanoma) | GI50 (UACC-62 melanoma) | TGI (UACC-62 melanoma) | GI50 (UACC-257 melanoma) | TGI (UACC-257 melanoma) | GI50 (HOP-62 NSCLC) | TGI (HOP-62 NSCLC) | GI50 (CAKI-1 renal) | TGI (CAKI-1 renal)
1 | O=C(Cc1ccc(/C=C/C(=O)c2ncc[nH]2)cc1)Nc1ccc(F)cc1 | 8.92 µM | 22.9 µM | 2.1 µM | 7.91 µM | 1.3 µM | > 33.3 µM | 6.94 µM | > 33.3 µM | 1.72 µM | 14.6 µM | 7.47 µM | 19 µM | 5.92 µM | 22.6 µM | 8.67 µM | 30.6 µM | 2.64 µM | 12.7 µM |  | 
2 | CC(N)C(Cc1ccc(Cl)cc1)c1ccc(Cl)cc1 (stereo not drawn) | 15.1 µM | 30.7 µM | 8.48 µM | 22.6 µM | 3.05 µM | 10.8 µM | 14 µM | 29.4 µM | 5.55 µM | 18.5 µM | 13 µM | 27 µM | 6.01 µM | 19.6 µM |  |  | 13.1 µM | 28.4 µM | 11.8 µM | 24.1 µM
3 | c1ccc([P+](CCSCCSCC[P+](c2ccccc2)(c2ccccc2)c2ccccc2)(c2ccccc2)c2ccccc2)cc1 |  | > 100 µM |  | > 100 µM |  | > 100 µM |  | > 100 µM |  | > 100 µM |  | > 100 µM |  | > 100 µM |  | > 100 µM |  | > 100 µM |  | 
4 | COc1ccc(C(c2cc(OC)c(OC)c(OC)c2)n2ccnc2)cc1O (stereo not drawn) | 0.304 µM | 0.941 µM | 0.389 µM | > 100 µM | 0.225 µM | > 100 µM | 0.838 µM | > 100 µM | 0.377 µM | > 100 µM |  |  | 0.668 µM | > 100 µM | 1.44 µM | > 100 µM | 0.516 µM | > 100 µM | 0.68 µM | > 100 µM
5 | COc1ccc(NC(=O)C(=O)c2c(O)c3ccc(O)cc3oc2=O)c([N+](=O)[O-])c1 |  | > 100 µM |  | > 100 µM |  | > 100 µM |  | > 100 µM |  | > 100 µM |  | > 100 µM |  | > 100 µM |  | > 100 µM |  |  |  | > 100 µM
6 | COc1ccc(C/C(=N/O)C(=O)NCCc2cc(Br)c(OCCCN(C)C)c(Br)c2)cc1Br |  |  |  | 34.9 µM |  |  |  | 38.4 µM |  | 33.4 µM |  | 37.4 µM |  |  |  | 30.6 µM |  | 30 µM |  | 69.4 µM
7 | C[C@@H](NC1CCCC[C@H]1O)c1ccccc1 (stereo partly drawn) |  | > 100 µM |  | > 100 µM |  | > 100 µM |  | > 100 µM |  | > 100 µM |  | > 100 µM |  | > 100 µM |  | > 100 µM |  | > 100 µM |  | 
8 | O=C(Oc1cccc2cccnc12)c1cc2c(cc1Cl)SC(N(c1ccc(F)cc1)S(=O)(=O)c1ccc(Br)s1)=NS2(=O)=O | 34.9 µM | > 100 µM | 44.2 µM | > 100 µM | 29.1 µM | > 100 µM | 27.1 µM | > 100 µM | 29.1 µM | > 100 µM | 34.3 µM | > 100 µM | 32.6 µM | > 100 µM |  |  | 50.8 µM | > 100 µM | 31.6 µM | 97.6 µM
9 | COc1cc(OC)c2c(c1)OC(c1ccccc1)CC2=O (stereo not drawn) |  |  |  | > 10 µM |  | > 10 µM |  | > 10 µM |  | > 10 µM |  | > 10 µM |  | > 10 µM |  | > 10 µM |  | > 10 µM |  | > 10 µM
10 | COC(=O)CC(NC(=O)OCc1ccccc1)C(C(C)=O)C(=O)OCc1ccccc1 (stereo not drawn) |  | > 31.6 µM |  | > 31.6 µM |  | > 31.6 µM |  | > 31.6 µM |  | > 31.6 µM |  |  |  | > 31.6 µM |  | > 31.6 µM |  |  |  | > 31.6 µM
11 | O=C(c1ccccc1)c1c(CC(O)c2ccccn2)n(C(=O)c2ccccc2)c2ccccc12 (stereo not drawn) |  |  |  | > 100 µM |  | > 100 µM |  | > 100 µM |  | 57 µM |  | 30.9 µM |  | 32.5 µM |  | 43.6 µM |  | 38.2 µM |  | > 100 µM
12 | COc1cc2c(cc1OC)[C@@H](Nc1ccc(C#N)cc1)C1COC(=O)[C@@H]1C2c1cc(OC)c(O)c(OC)c1 (stereo partly drawn) |  | 0.794 µM | 1.43 µM |  |  |  | 0.147 µM and 0.1 µM | 7.31 µM and 4.95 µM |  | 1.05 µM and 1.72 µM | 3.7 µM and 1.49 µM | 23 µM and 5.86 µM | 0.372 µM and 0.167 µM | 12.9 µM and 2.68 µM |  | 95 µM and > 100 µM | 0.0277 µM and 0.0929 µM | 0.325 µM and 0.492 µM | 0.223 µM and 0.166 µM | 
13 | CCN(CC)C(=O)Cc1c(C(=O)N(CC)CC)c(=O)nc2sccn12 |  | > 100 µM |  | > 100 µM |  | > 100 µM |  | > 100 µM |  | > 100 µM |  | > 100 µM |  | > 100 µM |  | > 100 µM |  | > 100 µM |  | 
14 | CCOC(=O)/C(=C/N1CCN(C(=O)c2ccco2)C1=S)C(=O)c1ccccc1 |  |  | 10.1 µM | > 50 µM | 15.7 µM | > 50 µM | 11.6 µM | 36.3 µM | 4.87 µM | 15.4 µM |  |  | 7.64 µM | 17.5 µM |  |  | 17.3 µM | > 50 µM | 15.9 µM | > 50 µM
15 | CC(C)(C)c1ccc(S(=O)(=O)Oc2ccc3c4c(c(=O)oc3c2)CCCCC4)cc1 | 6.53 µM | 36.3 µM | > 100 µM | > 100 µM |  |  | 14.2 µM | 39.8 µM | 7.3 µM | > 100 µM | 16.5 µM | 55.6 µM | 3.19 µM | 33.6 µM | 7.46 µM | > 100 µM | 21.5 µM | 46.2 µM | 10.9 µM | 43.5 µM
16 | C=C=C(CC1CCCCC1=O)S(=O)(=O)c1ccccc1 (stereo not drawn) |  | > 10 µM |  |  |  | > 10 µM |  | > 10 µM |  | > 10 µM |  | > 10 µM |  | > 10 µM |  | > 10 µM |  | > 10 µM |  | > 10 µM
17 | COc1cc(/C=C\c2cc(OC)c(OC)c(OC)c2)cc(N/C=C\C(=O)c2ccc(OC(F)(F)F)cc2)c1OC | 1.83 µM | 7.59 µM | 3.69 µM | > 100 µM | 2.93 µM | > 100 µM | 4.54 µM | > 100 µM | 3.34 µM | 36.4 µM |  |  | 6.86 µM | > 100 µM | 43.3 µM | > 100 µM | 7.85 µM | > 100 µM | 4.96 µM | > 100 µM
